Source: ChEMBL document CHEMBL3885881, “DrugMatrix”

Organism: Rattus norvegicus
Experiment: DrugMatrix - Regimen: Daily Repeat
Format: toxicity, organism-based, Sprague-Dawley
Set-up: regimen Daily Repeat, gender Male, age 6-8 weeks
Details: in vivo, po, route oral GAVAGE, vehicle 100 % WATER; for ABSOLUTE BASOPHIL / ABSOLUTE EOSINOPHIL / ABSOLUTE LYMPHOCYTE / ABSOLUTE MONOCYTE / ABSOLUTE SEGMENTED NEUTROPHIL / BASOPHIL / EOSINOPHIL / ERYTHROCYTE COUNT / HEMATOCRIT / HEMOGLOBIN / LEUKOCYTE COUNT / LYMPHOCYTE / MEAN CORPUSCULAR HEMOGLOBIN / MEAN CORPUSCULAR HEMOGLOBIN CONCENTRATION / MEAN CORPUSCULAR VOLUME / MONOCYTE / NEUTROPHIL / NUCLEATED RED BLOOD CELLS / PLATELET COUNT: tissue Blood; for ALANINE AMINOTRANSFERASE / ALBUMIN / ALKALINE PHOSPHATASE / ASPARTATE AMINOTRANSFERASE / BLOOD UREA NITROGEN / CARBON DIOXIDE / CHLORIDE / CHOLESTEROL / CREATINE PHOSPHOKINASE / CREATININE / GLUCOSE / LACTATE DEHYDROGENASE / LIPASE / PHOSPHORUS / POTASSIUM / SODIUM / TOTAL BILIRUBIN / TOTAL PROTEIN / URIC ACID: tissue Plasma
[1] = 50 mg/kg, 120 h, dose level Low, time 5 day
[2] = 1500 mg/kg, 72 h, dose level High, time 3 day
[3] = 1500 mg/kg, 120 h, dose level High, time 5 day

Cc1ncc([N+](=O)[O-])n1CCO [METRONIDAZOLE]
ABSOLUTE BASOPHIL [1]: 0 CELLS/uL | ABSOLUTE EOSINOPHIL [1]: 0 CELLS/uL | ABSOLUTE LYMPHOCYTE [1]: 11707 CELLS/uL | ABSOLUTE MONOCYTE [1]: 0 CELLS/uL | ABSOLUTE SEGMENTED NEUTROPHIL [1]: 459.67 CELLS/uL | BASOPHIL [1]: 0% | EOSINOPHIL [1]: 0% | ERYTHROCYTE COUNT [1]: 6 x10E6/uL | HEMATOCRIT [1]: 36.43% | HEMOGLOBIN [1]: 13.8 G/DL | LEUKOCYTE COUNT [1]: 12.17 x10E3/uL | LYMPHOCYTE [1]: 96.33% | MEAN CORPUSCULAR HEMOGLOBIN [1]: 23.03 pg | MEAN CORPUSCULAR HEMOGLOBIN CONCENTRATION [1]: 37.87 G/DL | MEAN CORPUSCULAR VOLUME [1]: 60.9 fL | MONOCYTE [1]: 0% | NEUTROPHIL [1]: 3.67% | NUCLEATED RED BLOOD CELLS [1]: 0.33 /100WBC | PLATELET COUNT [1]: 986 x10E3/uL | ALANINE AMINOTRANSFERASE [1]: 61 u/L | ALBUMIN [1]: 4.07 G/DL | ALKALINE PHOSPHATASE [1]: 338 u/L | ASPARTATE AMINOTRANSFERASE [1]: 108.33 u/L | BLOOD UREA NITROGEN [1]: 13.67 mg/dL | CARBON DIOXIDE [1]: 30.67 mmol/L | CHLORIDE [1]: 100.33 MEQ/L | CHOLESTEROL [1]: 67 mg/dL | CREATINE PHOSPHOKINASE [1]: 1022 u/L | CREATININE [1]: 0.16 mg/dL | GLUCOSE [1]: 151.33 mg/dL | LACTATE DEHYDROGENASE [1]: 207.67 u/L | LIPASE [1]: 10.67 u/L | PHOSPHORUS [1]: 11.73 mg/dL | POTASSIUM [1]: 5.65 MEQ/L | SODIUM [1]: 145.1 MEQ/L | TOTAL BILIRUBIN [1]: 0.13 mg/dL | TOTAL PROTEIN [1]: 6.17 G/DL | URIC ACID [1]: 1 mg/dL | ABSOLUTE BASOPHIL [2]: 0 CELLS/uL | ABSOLUTE EOSINOPHIL [2]: 49.33 CELLS/uL | ABSOLUTE LYMPHOCYTE [2]: 11170.67 CELLS/uL | ABSOLUTE MONOCYTE [2]: 122.67 CELLS/uL | ABSOLUTE SEGMENTED NEUTROPHIL [2]: 924 CELLS/uL | BASOPHIL [2]: 0% | EOSINOPHIL [2]: 0.33% | ERYTHROCYTE COUNT [2]: 5.75 x10E6/uL | HEMATOCRIT [2]: 36.7% | HEMOGLOBIN [2]: 14.07 G/DL | LEUKOCYTE COUNT [2]: 12.27 x10E3/uL | LYMPHOCYTE [2]: 91.33% | MEAN CORPUSCULAR HEMOGLOBIN [2]: 24.47 pg | MEAN CORPUSCULAR HEMOGLOBIN CONCENTRATION [2]: 38.33 G/DL | MEAN CORPUSCULAR VOLUME [2]: 63.8 fL | MONOCYTE [2]: 1% | NEUTROPHIL [2]: 7.33% | NUCLEATED RED BLOOD CELLS [2]: 0 /100WBC | PLATELET COUNT [2]: 1295.67 x10E3/uL | ALANINE AMINOTRANSFERASE [2]: 71 u/L | ALBUMIN [2]: 4.03 G/DL | ALKALINE PHOSPHATASE [2]: 332 u/L | ASPARTATE AMINOTRANSFERASE [2]: 84.33 u/L | BLOOD UREA NITROGEN [2]: 15 mg/dL | CARBON DIOXIDE [2]: 32.33 mmol/L | CHLORIDE [2]: 102 MEQ/L | CHOLESTEROL [2]: 87 mg/dL | CREATINE PHOSPHOKINASE [2]: 331.67 u/L | CREATININE [2]: 0.23 mg/dL | GLUCOSE [2]: 134.67 mg/dL | LACTATE DEHYDROGENASE [2]: 176.33 u/L | LIPASE [2]: 12 u/L | PHOSPHORUS [2]: 10.83 mg/dL | POTASSIUM [2]: 5.73 MEQ/L | SODIUM [2]: 146.4 MEQ/L | TOTAL BILIRUBIN [2]: 0.1 mg/dL | TOTAL PROTEIN [2]: 5.9 G/DL | URIC ACID [2]: 0.4 mg/dL | ABSOLUTE BASOPHIL [3]: 0 CELLS/uL | ABSOLUTE EOSINOPHIL [3]: 0 CELLS/uL | ABSOLUTE LYMPHOCYTE [3]: 10466.67 CELLS/uL | ABSOLUTE MONOCYTE [3]: 94 CELLS/uL | ABSOLUTE SEGMENTED NEUTROPHIL [3]: 906 CELLS/uL | BASOPHIL [3]: 0% | EOSINOPHIL [3]: 0% | ERYTHROCYTE COUNT [3]: 6.09 x10E6/uL | HEMATOCRIT [3]: 39.27% | HEMOGLOBIN [3]: 15.2 G/DL | LEUKOCYTE COUNT [3]: 11.47 x10E3/uL | LYMPHOCYTE [3]: 91.67% | MEAN CORPUSCULAR HEMOGLOBIN [3]: 25.03 pg | MEAN CORPUSCULAR HEMOGLOBIN CONCENTRATION [3]: 38.73 G/DL | MEAN CORPUSCULAR VOLUME [3]: 64.6 fL | MONOCYTE [3]: 1% | NEUTROPHIL [3]: 7.33% | NUCLEATED RED BLOOD CELLS [3]: 0 /100WBC | PLATELET COUNT [3]: 962 x10E3/uL | ALANINE AMINOTRANSFERASE [3]: 79.33 u/L | ALBUMIN [3]: 4.3 G/DL | ALKALINE PHOSPHATASE [3]: 365 u/L | ASPARTATE AMINOTRANSFERASE [3]: 91.67 u/L | BLOOD UREA NITROGEN [3]: 17.67 mg/dL | CARBON DIOXIDE [3]: 32.33 mmol/L | CHLORIDE [3]: 101.67 MEQ/L | CHOLESTEROL [3]: 66.33 mg/dL | CREATINE PHOSPHOKINASE [3]: 679.67 u/L | CREATININE [3]: 0.18 mg/dL | GLUCOSE [3]: 138.33 mg/dL | LACTATE DEHYDROGENASE [3]: 145.33 u/L | LIPASE [3]: 11 u/L | PHOSPHORUS [3]: 11.17 mg/dL | POTASSIUM [3]: 6.28 MEQ/L | SODIUM [3]: 147.87 MEQ/L | TOTAL BILIRUBIN [3]: 0.13 mg/dL | TOTAL PROTEIN [3]: 6.17 G/DL | URIC ACID [3]: 0.83 mg/dL
